The term MIC90 denotes the lowest concentration that inhibits either 90% of growth or 90% of the strains tested, depending on the study.

Data on three compounds can be found in patent US20080200442A1, “Compositions and Methods for Treating, Reducing, Ameliorating, or Preventing Infections of the Ear or Upper Respiratory Tract” (priority 2007, published 2008).

≈ marks a conversion by molar mass, not a printed value.

For this assay, the system named is Ofloxacin-resistant Enterobacteriaceae. Briefly: organism not typed. The assay is classed as cell-based.
In turn, `NC1CCCCN(c2c(F)cc3c(=O)c(C(=O)O)cn(C4CC4)c3c2Cl)C1` (stereo not drawn) [Compound Having Formula III] displayed an MIC90 of 16 µg/mL.

The compound `CCn1cc(C(=O)O)c(=O)c2cc(F)c(N3CCNCC3)cc21` [Norfloxacin] yielded an MIC90 of 128 µg/mL (≈ 401 µM).

`CC1COc2c(N3CCN(C)CC3)c(F)cc3c(=O)c(C(=O)O)cn1c23` (stereo not drawn) [Ofloxacin] displayed an MIC90 of 64 µg/mL (≈ 177 µM).
